“Also recorded” adds a separate entry of the source.
Experiments:
[1] = system: DNA; test: DNA affinity (Kp) from fluorescence enhancement versus DNA concentration, microtiter plate reader; assay type: binding; details: comparison in words, Table 1
Protocol: ^1 Fluorescence spectra obtained using a standard ratio of 200 μM
bp of DNA (bases of RNA) to 1 μM dye (standard solution) in a working
buffer (10 mM phosphate, 10% (v/v) ethanol, 1 mM EDTA and 100 mM NaCl), p
7.4. Fluorescence was measured in a Corning 96 U well plate and Cytofluor
sensitivity 4) as a function of DNA concentration from 0-100 μM at a
constant dye concentration of 0.5 μM.
^2 Fluorescence spectra obtained using the same method as above excep
the fluorescence was measured in a Cytofluor ™ 2300 (excitation filter
E (485/620); excitation D (620/640), and a sensitivity 4) as a function o
DNA concentration from 0-30 μM at a constant dye concentration of 0.1
^3 DNA affinity (Kp) determined by linear fitting of plots of
reciprocal fluorescence enhancement versus reciprocal DNA concentration,
as measured on a microtiter plate fluorescence reader (CytoFluor ™,

[2] = system: Bacillus cereus; test: Relative rate and extent of dye uptake into living Bacillus cereus (Example 2, FIG. 1); assay type: cell-based; details: 2 μM dye, 23° C., 488 nm excitation, 600 nm emission
Protocol: FIG. 1. Relative Uptake of Dyes into Living Cells. Uptake of ethidium, butidium, hexidium and octidium by Bacillus cereus as described in Example 2.
Bacillus cereus is grown in nutrient broth to log phase, washed by centrifugation, and resuspended in water to a density of 5×10^6 cfu/mL (as determined in Example 1). One centimeter pathlength acrylic cuvettes containing 3 mL of cell suspension are placed in a fluorescence spectrophotometer equipped with a temperature regulated cuvette holder and magnetic stirrer. The suspensions are brought to 23° C. prior to dye addition. To a cuvette of 3 mL bacteria suspension is added 3 μL of 2 mM dye stock solutions in DMSO to give a final dye concentration of 2 μM to produce the maximum attainable fluorescence/cell at the 600 nm emission wavelength (determined as in Example 1). The peak fluorescence excitation and emission wavelengths are determined by scanning the spectrum of the dye in suspensions of Bacillus cereus incubated for 30 min with the dye. Fluorescence intensity of the suspensions is measured using 488 nm excitation and 600 nm emission wavelengths. Sampling of fluorescence is carried out at 5 or 10 Hz until the fluorescence signal appears to stabilize.

[3] = system: mushroom spores; test: Staining of mushroom spores by fluorescence microscopy (Example 4); assay type: cell-based, agaric; details: 10-20 μM dye, 30 min, room temperature
Protocol: Spores are rinsed from the gills on the underside of the cap of an agaric using a stream of distilled water. The spores are concentrated by centrifugation for 30 sec at 10,000 rpm in a microcentrifuge then a minimal volume of a 10-20 μM solution of the 5-DAPP/LIVE dye in distilled water is added. The suspension is incubated with the dye for 30 min at room temperature then a 15 μL aliquot of the suspension is mounted on between a coverglass and the slide for viewing in the presence of the dye. The cellular fluorescence is observed on a Zeiss Axioplan fluorescence microscope using fluorescein (long:pass emission) or rhodamine filter sets.

[4] = system: Saccharomyces; test: Staining of yeast (Example 5); assay type: cell-based; details: 10 μM dye, 30 min, 37° C.
Protocol: Yeast cells are washed by centrifugation and then resuspended in a solution of 2% glucose and 10 mM Na-HEPES, pH 7.4 to a cell density of between 5×10^5 and 2×10^6 cells/mL optical density at 410 nm (previously calibrated with YPD agar plate colony counts). Sufficient 10 mM stock solution of the 5-DAPP/LIVE dye in DMSO is added to effect a final concentration of 10 μM of the dye in the medium. The suspension is incubated for 30 min at 37° C. then 15 μL are placed between a coverglass and the microscope slide. The cellular fluorescence is observed using fluorescein (long-pass emission) or rhodamine filter sets.

[5] = system: epidermal tissue of the bulb, Alium spp.; test: Staining of plant cell tissue (Example 6); assay type: cell-based; details: 10 μM dye, 30 min, room temperature
Protocol: A small section of tissue from the bulb is removed with a razor blade. 0.5 mL of a 10 μM solution of the 5-DAPP/LIVE dye in distilled water is dispensed into a small glass dish. The epidermal tissue is cut into sections and placed in the dye solution. The tissue is stained for 30 min at room temperature in the dark then the tissue preparation is mounted in the presence of the dye between a coverglass and the slide.

[6] = system: free-living ciliate and flagellate protozoans; test: Staining of protozoa (Example 7); assay type: cell-based; details: 1 μL of 10 mM dye in 1 mL culture, 10 min, ambient temperature
Protocol: 1 μL of 10 mM the 5-DAPP/LIVE dye stock is added to 1 mL of protozoan culture. The medium is incubated for 10 min at ambient temperature. 15 μL of this preparation is mounted with dye between a coverglass and the slide. Using this procedure, the nuclei of most cells of the free-living ciliate and flagellate protozoans are stained under these conditions.

[7] = system: 3T3 mouse fibroblast cells; test: Staining of nuclei in adherent cultured mammalian cells (Example 9); assay type: cell-based; details: 2 μM dye; for staining distribution, chloroquine-treated cells: group 1, 300 μM chloroquine; for staining distribution, control cells: group 2, no chloroquine; for color of nucleus and cytoplasm: one half hour, long-pass fluorescein filter (red with rhodamine excitation)
Protocol: 3T3 mouse fibroblast cells are grown on coverslips in calf serum-supplemented DMEM medium. The coverslips of cells are washed in HBSS+. 5-DAPP/LIVE dye solutions are prepared to a final concentration of 2 μM in DMEM without serum. One group of 3T3 cells is treated with 300 μM chloroquine (group 1). These cells and control cells (group 2) not treated with chloroquine are incubated at 37° C. for 30 min. The two groups of cells are transferred to DMEM plus 5-DAPP/LIVE. The cells are incubated in the dye-containing medium for 30 min at room temperature and are subsequently washed in HBSS+and viewed by epifluorescence microscopy using a long-pass fluorescein or a rhodamine filter set.

[8] = system: peripheral blood lymphocytes; test: Staining of peripheral blood lymphocytes, fluorometer (Example 11); assay type: cell-based, goat; details: for distribution of dye into nucleus of lymphocytes: on the scale of seconds
Protocol: Peripheral blood lymphocytes (PBL) are isolated from fresh heparinized goat blood and resuspended in buffer consisting of 135 mM NaCl, 5 mM KCl, 20 mM HEPES, 1 mM CaCl2, 1 mM MgCl2, pH 7.4 (HBSS+). The cells are resuspended to 10^6 mL (as determined by direct microscopic count using a standard hemocytometer) in a final volume of 3 mL in the above buffer in a quartz cuvette. 5-DAPP/LIVE dye stocks are prepared to final concentrations of 2 mM in DMSO. 3 μL of the octidium dye stock solution is injected into the cuvette to a final concentration of 2 μM. In a fluorometer, the sample is excited at 520 nm and fluorescence emission is monitored at 600 nm over the time required for the fluorescence signal to become stable. Hexidium, butidium and ethidium bromide are injected into separate samples of PBL to determine the relative rates of uptake for these stains. The volume of dye solution added to the cuvette is corrected by a factor relating the absorbance of the dye to the absorbance of a 2 mM octidium solution.

[9] = system: living cells; test: Entry into / staining of living cells, general; assay type: cell-based; details: general summary; for entry into / staining of live cells: several types of cells
[10] = system: nucleic acids; details: reduced ethidium, Bucana et al. (1986); cited from earlier work
[11] = system: living cells; details: intact cell membrane; background; cited from earlier work
[12] = system: gram-positive bacteria; details: mild conditions; application Ser. No. 08/047,683; cited from earlier work
[13] = system: gram-negative bacteria; details: mild conditions; application Ser. No. 08/047,683; cited from earlier work
[14] = system: trypanosome; details: Watkins, J. CHEM SOC. 3059 (1952); Watkins & Woolfe; cited from earlier work
[15] = system: gram-positive bacteria; test: Staining of live gram-positive bacteria; assay type: cell-based; details: general summary
[16] = system: tissue culture cells; test: Entry into / staining pattern of tissue culture cells; assay type: cell-based
From the text: In some tissue culture cells, the pattern of staining is different from that observed in plant cells or bacteria. In the former case, cells are usually loaded with a brief pulse of dye, followed by a chase of buffered saline solution. These cells show a pattern of staining first in numerous intracellular compartments; e.g. lysosomes. In addition to staining these organelles first, the dyes also undergo a spectral shift to shorter wavelengths when associated with this "early-labeled compartment." If the same cells are exposed to pulses of higher concentrations of the 5-DAPP/LIVE dyes, the staining appears in the mitochondria (tubular structures that are labeled with rhodamine 123) and then, finally, in the nucleus, where it stains the nucleoli very brightly. Nucleoli are the most prominently stained area of higher eukaryotic cells, while the nuclei and cytosol usually stain in a hazy or punctate pattern in these cells. […] In plant tissues distinct nuclei tend to label uniformly, but there is frequently significant binding of the dye to cell walls. The plant cells are usually dark except for cell walls and nuclei. The characteristic binding morphology obtained using the 5-DAPP/LIVE dyes thus makes them useful in certain circumstances for identifying the type of cell in a mixed population of cells.

[17] = system: DNA; test: Relative DNA binding affinity, YOYO-1 over 5-DAPP/LIVE

Structure (SMILES)	rate of dye loading [2]	staining distribution and intensity [4]	cell wall / surface staining [5]	staining of nuclei of protozoans [6]	distribution of dye into nucleus of lymphocytes [8]	membrane permeability [9]	entry into / staining of live cells [9]	other results
CCCC[n+]1c(-c2ccccc2)c2cc(N)ccc2c2ccc(N)cc21 [butidium]	increases with carbon chain length	more punctate cytoplasmic inclusions stained	more hazy surface staining	octidium which is better than butidium and ethidium	virtually instantaneous	limited permeability in most cells	enters live cells slowly and is usually not very bright	binding affinity versus longer chain versions [1]: higher binding affinity than the tested longer chain versions; fraction of spores brightly stained [3]: about 10%; staining of spores (in words) [3]: stains all spores; staining distribution, chloroquine-treated cells [7]: stained throughout, but with a greater relative intensity of staining in the nucleus; staining distribution, control cells [7]: relatively equal staining in the nucleus and cytoplasm; color of nucleus and cytoplasm [7]: orange
CC[n+]1c(-c2ccccc2)c2cc(N)ccc2c2ccc(N)cc21 [ethidium bromide, reference compound]	–	–	–	–	–	–	–	increase in fluorescence over time ([8]; 2 μM dye, 520 nm excitation, 600 nm emission): essentially no increase in fluorescence signal over time
CCN1c2cc(N)ccc2-c2ccc(N)cc2C1c1ccccc1 (stereo not shown) [dihydrophenanthridine derivative]	–	–	–	–	–	–	–	nucleic acid binding [10]: does not bind to nucleic acids
CCCCCCCC[n+]1c(-c2ccccc2)c2cc(N)ccc2c2ccc(N)cc21 [octidium]	increases with carbon chain length	somewhat less bright than hexidium staining; also recorded: markedly less cytoplasmic staining than any of the other forms	more hazy surface staining occurs with ethidium and butidium than with hexidium or octidium	better than butidium and ethidium	virtually instantaneous	marked enhancement of membrane permeability in all systems	enters cell membranes quickly; also recorded: becomes bright with continued incubation	fraction of spores brightly stained [3]: about 10%; fraction of yeast with stained nuclei [4]: less than 100%; nuclear staining / staining [5]: stains identically to hexidium; staining distribution, chloroquine-treated cells [7]: stained throughout, but with a greater relative intensity of staining in the nucleus; staining distribution, control cells [7]: relatively equal staining in the nucleus and cytoplasm; color of nucleus and cytoplasm [7]: orange
CC[n+]1c(-c2ccccc2)c2cc(N)ccc2c2ccc(N)cc21 [ethidium, reference compound]	increases with carbon chain length	stains all yeast slightly with a pale red nucleus and hazy red cytoplasm	more hazy surface staining	octidium which is better than butidium and ethidium	not ethidium	–	does not enter most live cells easily	fraction of spores entered [3]: less than 10%; suitability for staining of nucleic acids in living cells [11]: usually not suitable for staining of nucleic acids in living cells in which the cell membrane is intact; staining of live gram-positive bacteria [12]: does not effectively stain; staining of live gram-negative bacteria [13]: does not effectively stain; trypanocidal effectiveness / therapeutic potential [14]: superior to that of other 5-DAPP derivatives with longer alkyl chains
Nc1ccc2c(c1)c(-c1ccccc1)[n+](CCc1ccccc1)c1cc(N)ccc21 [phenethidium]	–	–	–	–	–	marked enhancement of membrane permeability in all systems	facilitates entry of the 5-DAPP dye into living cells, but at a rate that is typically slower than derivatives in which the substituent is a C4 to C8 alkyl group	entry into gram positive bacteria [15]: enters gram positive bacteria; time to enter tissue culture cells [16]: ≥ 1 h
C[n+]1c(-c2ccccc2)c2cc(N)ccc2c2ccc(N)cc21 [methidium]	–	–	–	–	–	–	–	trypanocidal effectiveness / therapeutic potential [14]: less effective than ethidium
C[n+]1c(C=C2C=CN(CCC[N+](C)(C)CCC[N+](C)(C)CCCN3C=CC(=Cc4oc5ccccc5[n+]4C)c4ccccc43)c3ccccc32)oc2ccccc21 [YOYO-1, reference compound]	–	–	–	–	–	virtual impermeability	–	DNA binding affinity of YOYO-1 over 5-DAPP/LIVE [17]: hundred
